SMILES strings stand for the structures. Like-named read-outs stand apart in the source and are kept apart here.

Here are results for seven compounds from patent US20260259169A1, “BETA-LACTAMASE SUBSTRATE COMPOUNDS AND ELECTROCHEMICAL DETECTION METHODS USING THEM” (priority 2023, published 2026).

Series [1] in a line: NMR stability study in relation to a dimethylformamide (DMF) reference. It counts as physicochemical. Here is the method: More particularly, when the degradation is determined by means of NMR measurements, a first sample comprising the beta-lactamase substrate compound according to the present disclosure and a second sample comprising the reference, e.g. DMF, are heated or cooled to a predefined temperature, after which the NMR measurement is performed on both samples (measurement at time=0). The same measurement is repeated on the samples after a predefined time (time=x), while their temperature is kept constant at the predefined temperature from time=0 to time=x. The difference of the integration of NMR measurement signals of both samples is determined by comparing between time=0 and time=x, thereby allowing to define the degree (percentage) of degradation of the beta-lactamase substrate compound at time=x.
(§1) The stability of the beta-lactamase substrate compounds over time at different temperatures was tested the reference HMRZ-86 of example 1 (at 1.2 mM) and the beta-lactamase substrate compound with R being 2-nitro-4-cyano of Example 1 (at 2.4 mM).
The stability was tested by a NMR stability study. The degradation was measured by measuring the evolution of the integration of NMR measurement signals of the molecule in relation to a dimethylformamide (DMF) reference. The stability of the beta-lactamase substrate compound is expressed by the percentage of degradation in function of time.
The stability of all 3 beta-lactamase substrate compounds (R being 4-cyanophenyl, group β being H, CH3 and CF3, respectively), as well as the beta-lactamase having the same group R and a group β according to formula II was tested at 20° C. in DMF as reference.

In a further series the target is KPC (Klebsiella pneumoniae, UniProt Q9F663). Put plainly: Amperometric measurement of oxidation current with KPC in TPTZ buffer. Particulars: for detection of the lowest tested concentration of KPC / detection of the highest concentration of KPC: 6.0 mM substrate; for detection of the lowest tested concentration of KPC: KPC 59.85 ng/ml; for detection of the lowest tested concentration of KPC / detection of the highest concentration of KPC / detection of the beta-lactamase concentration of 9.975 ng/mL / detection of the beta-lactamases (oxidation current): KPC concentrations detected: 30 minutes at 37° C.; for detection of the highest concentration of KPC: KPC 239.4 ng/ml; for detection of the beta-lactamase concentration of 9.975 ng/mL: KPC 9.975 ng/mL; for detection of the beta-lactamases (oxidation current): KPC concentrations detected: succinate buffer pH 5.5, KPC 239.4, 59.85, 9.975 and 4.985 ng/ml. It counts as biochemical. Here is the method: A medium comprising 1.2 mM of substrate in a succinate buffer of pH 5.5 was prepared for each of the 8 beta-lactamase substrate compounds (7 inventive ones and the HMRZ-86 reference one).
4 different samples to be analyzed were prepared, each comprising KPC as beta-lactamase in a standard 2,4,6-tri-2-pyridinyl-1,3,5-triazine (TPTZ) buffer but in different concentrations: 239.4, 59.85, 9.975 and 4.985 ng/ml (ng of KPC per mL of TPTZ buffer). The two first concentrations of KPC aim to determine the capacity of the derivative to detect the presence of beta-lactamase whereas the two lowest concentrations aim to address the limit of detection.
Each of the […] (in other words 32 combinations) and incubated for 30 minutes at 37° C. Next, an amperometric measurement was performed on all 32 of the incubated mediums, and the oxidation current was determined. The device used was a Metrohm Dropsens and the electrodes were Metrohm Dropsens SCPE 110 electrodes. The oxidation current is the maximum current value measured between 0.1 V and 0.5 V vs. Ag/AgCl.
To test the impact of the concentration of the beta-lactamase substrate compound on the possibility to detect beta-lactamases, a further medium comprising 2.4 mM of the beta-lactamase substrate compound with R being 2-nitro-4-cyanophenyl was prepared. […] The same four beta-lactamase concentrations as in Example 1 were tested (i.e. the same samples). The incubation and measurement were performed as in Example 1.
A medium comprising 6.0 mM of each substrate in a succinate buffer of pH 5.5 was prepared. 2 different samples to be analyzed were prepared, each comprising KPC as beta-lactamase type in a standard 2,4,6-tri-2-pyridinyl-1,3,5-triazine (TPTZ) buffer, but in different concentrations: 239.4 ng/ml and 59.85 ng/ml, respectively (ng of KPC per mL of TPTZ buffer). Each of the […] was added to each of the 2 mediums (in other words 6 combinations) and incubated for 30 minutes at 37° C. Next, an amperometric measurement was performed on all 6 of the incubated mediums, and the oxidation current was determined. The equipment used was the same as that of Example 1.

A further series relates to OXA-48. The series can be described thus: Amperometric detection of beta-lactamase type producing bacteria strains. Particulars: 6.0 mM substrate, HMRZ-86 1.2 mM; qualitative. It counts as cell-based. How it is done:
(§2) The possibility to detect different beta-lactamase type producing bacteria strains was also tested. As reference, a reference medium comprising 1.2 mM beta-lactamase substrate compound HMRZ-86 was prepared as well.

The subject of another series is OXA-40. The series is described as above. The format is cell-based. Particulars: 6.0 mM substrate, HMRZ-86 1.2 mM; qualitative. Here is the method:
as §2

The test system of another series is OXA-58. Described as above. It counts as cell-based. Particulars: 6.0 mM substrate, HMRZ-86 1.2 mM; qualitative. How it is done:
as §2

A further series concerns CTXM. The series is described as above. The format is cell-based. Particulars: 6.0 mM substrate, HMRZ-86 1.2 mM; qualitative. Here is the method:
as §2

Series [2] is described as follows: NMR stability study in relation to a 22 mM succinate buffer reference. The format is physicochemical. How it is done: as §1
The stability of both beta-lactamase substrate compounds was also tested in relation to a 22 mM succinate buffer reference. […] Contrary to the dimethylformamide (DMF) reference, the degradation in relation to the succinate buffer was similar for both substrate compounds, with the first degradation starting after 2 weeks at both temperatures.

For series [3], the system named is bacteria strains that produce KPC/OXA-48. The series can be described thus: Amperometric detection in blood culture. The format is cell-based. Particulars: 2.4 mM versus HMRZ-86 1.2 mM. How it is done:
(§3) The possibility of the beta-lactamase substrate compounds to detect bacteria strains producing different beta-lactamases was tested for the reference HMRZ-86 of example 1 (at 1.2 mM) and the beta-lactamase substrate compound with R being 2-nitro-4-cyano of Example 1 (at 2.4 mM). […] Consequently, amperometric voltammetry of the negative control with ATCC should give an oxidation current of 0 nA for the measurement to be valid.

Series [4] has as its system bacteria strains that produce VIM type. Put plainly: Amperometric detection in blood culture. It counts as cell-based. Particulars: 2.4 mM versus HMRZ-86 1.2 mM. How it is done: as §3
The beta-lactamase with group β being CF3 (6.0 mM), as well as the reference HMRZ-86 (1.2 mM) were also tested with blood cultures comprising bacteria strains producing the carbapenemase KPC type, the metallo-beta-lactamase VIM type and the metallo-beta-lactamase NDM type, as well as a blood culture comprising no bacteria strains producing beta-lactamases (negative control ATCC).

`N#Cc1ccc(C=CC2=C(C(=O)O)N3C(=O)C(NC=O)C3SC2)cc1` (stereo not drawn) [H]: the “time of first signs of degradation” value in series [1] was found to be 13 weeks. For the same compound, the “detection of the lowest tested concentration of KPC” value at KPC is recorded as “capable to detect”. Also, at KPC, the “detection of the highest concentration of KPC” value is “capable to detect”. For the same compound, the “detection (oxidation current)” value with OXA-48, in the series with OXA-40, in the series with OXA-58 and in the series on CTXM was “capable of detecting” throughout.

As for `CC(C)(ON=C(C(=O)NC1C(=O)N2C(C(=O)O)=C(C=Cc3ccc([N+](=O)[O-])c([N+](=O)[O-])c3)CSC12)c1csc(N)n1)C(=O)O` (stereo not drawn) [3,4-dinitrophenyl], the “detection of the beta-lactamase concentration of 9.975 ng/mL” value at KPC (1.2 mM substrate) was “could detect”.

`CC(C)(ON=C(C(=O)NC1C(=O)N2C(C(=O)O)=C(C=Cc3ccc(C#N)cc3C#N)CSC12)c1csc(N)n1)C(=O)O` (stereo not drawn) [2,4-dicyano]: the “detection of the beta-lactamases (oxidation current): KPC concentrations detected” value on KPC (1.2 mM substrate) is listed as “only the 2 highest concentrations were detected”.

As to `CC(=O)NC1C(=O)N2C(C(=O)O)=C(C=Cc3ccc(C#N)cc3)CSC12` (stereo not drawn) [CH3], the “time of first signs of degradation” value in series [1] (20° C., DMF reference, up to 26 weeks) came out at 1 weeks. Moreover, the “detection of the lowest tested concentration of KPC” value at KPC was “only the “H” and “CF3” groups are capable to detect the lowest tested concentration”. In addition, the “detection of the highest concentration of KPC” value on KPC is “capable to detect”. Further, the “detection (oxidation current)” value in the series on OXA-48, in the series with OXA-40, with OXA-58 and in the series on CTXM was “detect OXA-48 type only” throughout.

Take `CC(C)(ON=C(C(=O)NC1C(=O)N2C(C(=O)O)=C(C=Cc3cc([N+](=O)[O-])cc([N+](=O)[O-])c3)CSC12)c1csc(N)n1)C(=O)O` (stereo not drawn) [3,5-dinitrophenyl]: the “detection of the beta-lactamase concentration of 9.975 ng/mL” value at KPC (1.2 mM substrate) is reported as “this was not the case”.

Regarding `CC(C)(ON=C(C(=O)NC1C(=O)N2C(C(=O)O)=C(C=Cc3ccc(C#N)cc3[N+](=O)[O-])CSC12)c1csc(N)n1)C(=O)O` (stereo not drawn) [2-nitro-4-cyano], the “time at which the first degradation starts” value in [2] (4° C.) and in series [2] (20° C.) was 2 weeks in each case. Besides, on KPC (1.2 mM substrate), the “detection of the beta-lactamases (oxidation current): KPC concentrations detected” value is on record as “all 4 concentrations”. For the same compound, the “oxidation current compared with 1.2 mM HMRZ-86 reference” value at KPC (2.4 mM substrate, 4 KPC concentrations) is “in line with these of the 1.2 mM HMRZ-86 reference”. Further, on KPC (2.4 mM substrate, KPC 239.4 and 59.85 ng/ml), the “oxidation current compared with 1.2 mM HMRZ-86 reference, 2 highest beta-lactamase concentrations” value is listed as “higher than the reference”. Besides, the “oxidation current on increasing the substrate concentration” value on KPC (2.4 mM versus 1.2 mM substrate, 4 KPC concentrations) was “significantly increases the oxidation current”. Moreover, the “oxidation current compared with HMRZ-86” value in [3] and in series [4] was “significantly higher” in each case.

For `CC(C)(ON=C(C(=O)NC1C(=O)N2C(C(=O)O)=C(C=Cc3ccc(C#N)cc3)CSC12)c1csc(N)n1)C(=O)O` (stereo not drawn) [4-cyanophenyl], the degradation result in [1] (20° C., up to 26 weeks, DMF reference) is “no signs of degradation”. Further, the “oxidation current, compared among R groups with a single moiety at the para-position” value at KPC (1.2 mM substrate, 4 KPC concentrations, FIG. 2) was “highest oxidation currents”.
